Values joined by “and” are separate entries in the source; they are usually repeats but may differ in a detail not shown here. Equal entries are not always repeated. “Also recorded” adds a separate entry of the source.
Experiments:
[1] = target: potato 5-lipoxygenase; assay: 5-Lipoxygenase enzyme inhibitory activity; assay type: biochemical; conditions: for 5-Lipoxygenase inhibitory activity IC50 values: potato 5-lipoxygenase, linoleic acid substrate
Experimental: 5-Lipoxygenase enzyme inhibitory activity was measured using the method of Schewe et al. (Adv Enzymol, Vol 58: pp 191-272, 1986), modified by Reddanna et. al., (Methods of Enzymology, Vol 187: pp 268-277, 1990). The assay mixture contained 80 μM linoleic acid and sufficient amount of potato 5-lipoxygenase in 50 mM phosphate buffer (pH 6.3). The reaction was initiated by the addition of enzyme buffer mix to linoleic acid and the enzyme activity was monitored as the increase in absorbance at 234 nm. The reaction was monitored for 120 sec and the inhibitory potential of the test substances was measured by incubating various concentrations of test substances two minutes before the addition of linoleic acid. All assays were performed three times. The IC50 values were calculated from the plot drawn of the concentrations of test substances versus percentage inhibition.

[2] = test system: adipocyte fatty acid-binding protein (aP2); assay: Down-regulation of aP2 protein expression in LPS-induced THP-1 derived macrophages (Western blot); assay type: cell-based, human; conditions: 5 μg/ml, 2 h pretreatment, LPS 100 ng/ml 16 h, normalized to actin
Experimental: The inventors also assessed the effect of α-mangostin and γ-mangostin on adipocyte fatty acid-binding protein aP2 expression in human monocytes-macrophage cells in a cell based in vitro model. In this experiment, THP-1 human monocyte-macrophage cells were pre-treated with 5 μg/ml of γ-mangostin or α-mangostin for 2 h and thereafter primed with LPS to induce the inflammatory response. The cellular proteins were extracted by cell lysis buffer and subjected to immuno-western blot to detect the modulation of expression of aP2 protein.
Down-regulation of aP2 protein expression by α-mangostin and γ-mangostin was evaluated in a cell based in vitro model. […] The protein content was measured by Coomassie blue based Bradford method and equal amount of cellular protein lysates (2 μg) was resolved in 15% SDS-Polyacrylamide gels. […] The aP2 protein expression was specifically detected by chemiluminescent substrate (Pierce, USA); detection of chemiluminescent bands and densitometric analyses were carried out on Kodak 4000 mM image station (supplied by Kodak, USA). The same nitrocellulose blots were stripped and re-probed with anti-actin antibody (Sigma Chemical CO, USA) and actin protein expression was recorded as an indication of equal protein loading in each lane. […]

[3] = test system: TNF-α; assay: Inhibition of LPS-induced TNF-α in THP-1 human monocytes (EIA); assay type: cell-based; conditions: THP-1 cells, 2 h pretreatment, 100 ng/ml LPS 4 h
Experimental: Inhibition of Tumor necrosis factor-α (TNF-α) in vitro by α-mangostin and γ-mangostin: The anti-inflammatory activities of α-mangostin, γ-mangostin and composition-I were assessed in a cell based in vitro assay. Briefly, THP-1 human monocytes cells were washed and re-suspended in phenol red free Dulbecco's Modified Eagle's Medium (DMEM) supplemented with 1% fetal Bovine serum (FBS). Equal number of cells was added to each well of a 96-well TC plate and the cells were pretreated for 2 h with various concentrations of test substances (ranging from 0.5 to 50 μg/ml; solutions prepared in culture medium from a stock solution containing 50 mg/l mL DMSO of each test compound) of α-mangostin, γ-mangostin and composition-I. The inflammatory response was induced by treatment with 100 ng/ml of LPS for 4 h at 37° C. in presence of 5% CO2. The vehicle control culture wells received 0.1% DMSO in culture medium. The cell culture supernatants were collected and assessed for secretary pro-inflammatory cytokine, TNFα. The TNF-α concentration was quantitatively measured by highly specific and sensitive Enzyme Immuno Assay (EIA) kit supplied by R&D Systems, USA. The enzyme immuno assay was performed based on the protocol provided by the vendor. The inhibitory concentration for 50% inhibition (IC50) of TNF-α was determined from a plot drawn for ingredient concentration against TNF-α level.

For `COc1c(O)cc2oc3cc(O)c(CC=C(C)C)c(O)c3c(=O)c2c1CCC(C)(C)O` [Garcinone D], the “5-Lipoxygenase inhibitory activity IC50 values” [1] was 5.7 µg/mL.

`COc1c(O)cc2oc3cc(O)c(CC=C(C)C)c(O)c3c(=O)c2c1CC=C(C)C` [α-mangostin] was tested, and the “Inhibition of LPS induced aP2 protein expression” value [2] was “inhibition of aP2 protein expression”.

`CC(C)=CCc1c(O)cc2oc3cc(O)c(O)c(CC=C(C)C)c3c(=O)c2c1O` [γ-mangostin] was tested, and the “5-Lipoxygenase inhibitory activity IC50 values” [1] was 0.52 µg/mL, the “IC50 for TNFα” value [3] was 3.32 µg/mL and 3.322 µg/mL and the “Inhibition of LPS induced aP2 protein expression” value [2] was “more potent inhibitor of aP2 in vitro compared to α-mangostin; also recorded: inhibited the LPS induced aP2 expression more strongly compared to α-mangostin”.

Garcinone C was tested, and the “Relative potency of O-demethylxanthone versus O-methyl counterpart” value ([1]; comparison in words) was “relatively higher potency compared to its natural O-methyl counterpart, garcinone D” and the “5-Lipoxygenase inhibitory activity IC50 values” [1] was 2.8 µg/mL.
